Measured values taken from ChEMBL document CHEMBL4316625, “Double prodrugs of a fosmidomycin surrogate as antimalarial and antitubercular agents” (Bioorg Med Chem Lett, 2019).

Test system: Mycobacterium tuberculosis
Assay: Antitubercular activity against Mycobacterium tuberculosis H37Ra ATCC 25177 transformed with pSMT1 luciferase reporter plasmid reduction in bacterial multiplication incubated for 7 days by luminometric assay
Type: functional, organism-based
Details: H37Ra ATCC 25177, 168 h

Compound | MIC [µM]
CN(OC(=O)Nc1ccccc1)C(=O)CCCP(=O)(OCOC(=O)C(C)(C)C)OCOC(=O)C(C)(C)C | > 64
CC(=O)ON(C)C(=O)CCCP(=O)(OCOC(=O)C(C)(C)C)OCOC(=O)C(C)(C)C | > 64
